# Assay results as given in ChEMBL document CHEMBL5154703, “Improved cyclobutyl nabilone analogs as potent CB1 receptor agonists” (Eur J Med Chem, 2022).
# Active and inactive are the calls of the source. No cut-off for these calls is given here.
# What was measured:
# Rattus norvegicus [1] = experiment: Hypothermic effect in female Sprague-Dawley rat model assessed as reduction in body temperature at 10 to 30 mg/kg after 30 to 360 mins; assay type: functional; details: dose 10-30 mg/kg; time 30-360 min
# Rattus norvegicus [2] = experiment: Antinociceptive activity against female Sprague-Dawley rat model of thermal-induced nociception at 0.01 to 10 mg/kg measured after 30 to 360 mins by tail flick test; assay type: functional; details: dose 0.01-10 mg/kg, time 30-360 min
# Cannabinoid receptor 1 [3] = target: T1, Cannabinoid receptor 1 (Rattus norvegicus, UniProt P20272); experiment: Displacement of [3H]-CP-55,940 from CB1R in rat brain membranes measured by radioligand based competition binding assay; assay type: cell membranes, Membrane
# T1 sequence (P20272 whole entry): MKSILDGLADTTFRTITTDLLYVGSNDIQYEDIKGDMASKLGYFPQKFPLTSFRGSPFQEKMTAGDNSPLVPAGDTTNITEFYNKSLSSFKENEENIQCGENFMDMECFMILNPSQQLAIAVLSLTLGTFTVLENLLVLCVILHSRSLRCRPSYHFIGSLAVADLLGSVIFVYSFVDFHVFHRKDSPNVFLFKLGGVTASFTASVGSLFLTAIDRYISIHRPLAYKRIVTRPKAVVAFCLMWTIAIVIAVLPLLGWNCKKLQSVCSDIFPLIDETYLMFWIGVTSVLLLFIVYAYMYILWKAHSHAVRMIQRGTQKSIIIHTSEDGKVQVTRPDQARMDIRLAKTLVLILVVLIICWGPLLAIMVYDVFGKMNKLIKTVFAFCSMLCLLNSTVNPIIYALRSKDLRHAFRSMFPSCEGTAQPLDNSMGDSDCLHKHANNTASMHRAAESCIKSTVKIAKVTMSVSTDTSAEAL
# Cannabinoid receptor 1 [4] = target: T1, Cannabinoid receptor 1; experiment: Agonist activity at rat CB1 receptor expressed in HEK293 cells assessed as inhibition of forskolin-induced cAMP accumulation measured for 60 mins by Lance Ultra cAMP assay; assay type: functional, cell-based
# [5] = target: Cannabinoid receptor 1 (Rattus norvegicus) (UniProt P20272); experiment: Agonist activity at rat CB1 receptor expressed in HEK293 cells assessed as inhibition of forskolin-induced cAMP accumulation measured for 60 mins by Lance Ultra cAMP assay relative to control; assay type: functional, cell-based; details: filed as agonist
# Cannabinoid receptor 1 (Rattus norvegicus), sequence (P20272 whole entry): as above
# Cannabinoid receptor 1 [6] = target: T2, Cannabinoid receptor 1 (Homo sapiens, UniProt P21554); experiment: Agonist activity at human CB1 receptor expressed in CHO-K1 cells assessed as assessed as induction of beta-arrestin 2 recruitment measured for 90 mins by PathHunter assay; assay type: functional, cell-based
# T2 sequence (P21554 whole entry): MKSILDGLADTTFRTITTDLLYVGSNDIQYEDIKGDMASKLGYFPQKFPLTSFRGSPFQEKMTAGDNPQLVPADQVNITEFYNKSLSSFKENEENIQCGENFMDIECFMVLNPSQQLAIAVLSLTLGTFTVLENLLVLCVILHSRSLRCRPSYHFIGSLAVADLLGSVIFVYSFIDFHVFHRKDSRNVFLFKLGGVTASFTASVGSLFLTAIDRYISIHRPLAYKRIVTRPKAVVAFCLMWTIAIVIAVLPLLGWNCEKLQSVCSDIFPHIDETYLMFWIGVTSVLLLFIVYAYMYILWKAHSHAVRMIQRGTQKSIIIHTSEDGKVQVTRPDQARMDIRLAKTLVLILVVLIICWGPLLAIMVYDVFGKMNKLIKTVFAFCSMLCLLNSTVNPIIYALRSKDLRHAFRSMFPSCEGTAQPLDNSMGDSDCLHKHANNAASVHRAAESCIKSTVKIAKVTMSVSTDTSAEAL
# Rattus norvegicus [7] = experiment: Antinociceptive activity against female Sprague-Dawley rat model of thermal-induced nociception at 0.3 to 1 mg/kg assessed as increase in tail flick latency measured after 30 to 360 mins by tail flick test; assay type: functional, organism-based; details: dose 0.3-1 mg/kg, time 30-360 min
# Rattus norvegicus [8] = experiment: Hypothermic effect in female Sprague-Dawley rat model assessed as reduction in body temperature at 0.01 to 10 mg/kg measured as ED50 after 30 to 360 mins; assay type: functional; details: dose 0.01-10 mg/kg, time 30-360 min
# Cannabinoid receptor 1 [9] = target: T2, Cannabinoid receptor 1; experiment: Agonist activity at N-terminal 3HA-tagged human CB1 receptor expressed in CHO cells assessed as inhibition of forskolin-induced cAMP accumulation measured for 30 mins by FRET assay; assay type: functional, cell-based
# Rattus norvegicus [10] = experiment: Hypothermic effect in female Sprague-Dawley rat model assessed as reduction in body temperature at 0.01 to 10 mg/kg measured after 30 to 360 mins; assay type: functional; details: dose 0.01-10 mg/kg; time 30-360 min
# Rattus norvegicus [11] = experiment: Hypothermic effect in female Sprague-Dawley rat model assessed as reduction in body temperature at 0.3 to 1 mg/kg after 90 mins; assay type: functional, organism-based; details: dose 0.3-1 mg/kg
# Cannabinoid receptor 1 [12] = target: T2, Cannabinoid receptor 1; experiment: Agonist activity at human CB1 receptor expressed in CHO-K1 cells assessed as assessed as induction of beta-arrestin 2 recruitment measured for 90 mins by PathHunter assay relative to control; assay type: functional, cell-based; details: filed as agonist
# Cannabinoid receptor 1 [13] = target: T2, Cannabinoid receptor 1; experiment: Agonist activity at N-terminal 3HA-tagged human CB1 receptor expressed in CHO cells assessed as inhibition of forskolin-induced cAMP accumulation measured for 30 mins by FRET assay relative to control; assay type: functional, cell-based; details: filed as agonist
SMILES,Ki (Cannabinoid receptor 1 [3]) [nM],also measured
CCCCCc1cc(O)c2c(c1)OC(C)(C)[C@@H]1CCC(C)=C[C@@H]21 [DRONABINOL],–,T (Rattus norvegicus [1]): 2.8 °C; ED50 (Rattus norvegicus [2]): 1.3 mg/kg
CC1(C)Oc2cc(C3(CCCC#N)CCC3)cc(O)c2[C@@H]2C[C@H](O)CC[C@H]21,4.6,–
CC1(C)Oc2cc(C3(CCCCCCBr)CCC3)cc(O)c2[C@@H]2CC(=O)CC[C@H]21,0.46,–
CC1(C)Oc2cc(C3(CCCCCC#N)CCC3)cc(O)c2[C@@H]2C[C@@H](O)CC[C@H]21,0.61,EC50 (Cannabinoid receptor 1 [4]): 2 nM; Emax [5]: 97%
CC1(C)Oc2cc(C3(CCCCCN=[N+]=[N-])CCC3)cc(O)c2[C@@H]2C[C@@H](O)CC[C@H]21,0.92,–
CC1(C)Oc2cc(C3(CCCCCCN4CCOCC4)CCC3)cc(O)c2[C@@H]2C[C@H](O)CC[C@H]21,43.9,–
CC1(C)Oc2cc(C3(CCCCN=[N+]=[N-])CCC3)cc(O)c2[C@@H]2CC(=O)CC[C@H]21,11,–
CC1(C)Oc2cc(C3(CCCBr)CCC3)cc(O)c2[C@@H]2CC(=O)CC[C@H]21,45.7,–
CC1(C)Oc2cc(C3(CCCCBr)CCC3)cc(O)c2[C@@H]2C[C@@H](O)CC[C@H]21,1.11,–
CC1(C)Oc2cc(C3(CCCCCCBr)CCC3)cc(O)c2[C@@H]2C[C@@H](O)CC[C@H]21,1,–
CC1(C)Oc2cc(C3(CCCCCN=C=S)CCC3)cc(O)c2[C@@H]2CC(=O)CC[C@H]21,4.91,–
CC1(C)Oc2cc(C3(CCCCCN=[N+]=[N-])CCC3)cc(O)c2[C@@H]2CC(=O)CC[C@H]21,0.66,–
CC1(C)Oc2cc(C3(CCCBr)CCC3)cc(O)c2[C@@H]2C[C@H](O)CC[C@H]21,8.75,–
CC1(C)Oc2cc(C3(CCCCN=[N+]=[N-])CCC3)cc(O)c2[C@@H]2C[C@H](O)CC[C@H]21,0.57,–
CC1(C)Oc2cc(C3(CCCCC#N)CCC3)cc(O)c2[C@@H]2C[C@@H](O)CC[C@H]21,1.9,–
CC1(C)Oc2cc(C3(CCCCN=C=S)CCC3)cc(O)c2[C@@H]2CC(=O)CC[C@H]21,8.2,–
CC1(C)Oc2cc(C3(CCCCCC#N)CCC3)cc(O)c2[C@@H]2C[C@H](O)CC[C@H]21,0.69,EC50 (Cannabinoid receptor 1 [4]): 3.9 nM; Emax [5]: 108%
CC1(C)Oc2cc(C3(CCCCBr)CCC3)cc(O)c2[C@@H]2C[C@H](O)CC[C@H]21,1.2,–
CC1(C)Oc2cc(C3(CCCCCC#N)CCC3)cc(O)c2[C@@H]2CC(=O)CC[C@H]21,0.55,EC50 (Cannabinoid receptor 1 [6]): 7.5 nM; EC50 (Cannabinoid receptor 1 [4]): 8.6 nM; Activity (Rattus norvegicus [7]): Active; ED50 (Rattus norvegicus [8]): 0.16 mg/kg; EC50 (Cannabinoid receptor 1 [9]): 1.4 nM; T (Rattus norvegicus [10]): 6 °C; Activity (Rattus norvegicus [11]): Active; ED50 (Rattus norvegicus [2]): 0.14 mg/kg; Emax (Cannabinoid receptor 1 [12]): 93%; Emax [5]: 126%; Emax (Cannabinoid receptor 1 [13]): 94%
CC1(C)Oc2cc(C3(CCCCN4CCOCC4)CCC3)cc(O)c2[C@@H]2CC(=O)CC[C@H]21,4,–
CC1(C)Oc2cc(C3(CCCCBr)CCC3)cc(O)c2[C@@H]2CC(=O)CC[C@H]21,18,–
CC1(C)Oc2cc(C3(CCCCCN4CCOCC4)CCC3)cc(O)c2[C@@H]2CC(=O)CC[C@H]21,1.9,–
CC1(C)Oc2cc(C3(CCCCN=[N+]=[N-])CCC3)cc(O)c2[C@@H]2C[C@@H](O)CC[C@H]21,8.2,–
CC1(C)Oc2cc(C3(CCCCC#N)CCC3)cc(O)c2[C@@H]2C[C@H](O)CC[C@H]21,0.55,–
CC1(C)Oc2cc(C3(CCCCC#N)CCC3)cc(O)c2[C@@H]2CC(=O)CC[C@H]21,3.4,–
CC1(C)Oc2cc(C3(CCCCCCBr)CCC3)cc(O)c2[C@@H]2C[C@H](O)CC[C@H]21,0.38,–
CCCCCCC(C)(C)c1cc(O)c2c(c1)OC(C)(C)C1CCC(=O)CC21 (stereo not given) [NABILONE],–,ED50 (Rattus norvegicus [8]): 0.38 mg/kg
CC1(C)Oc2cc(C3(CCCCN=C=S)CCC3)cc(O)c2[C@@H]2C[C@H](O)CC[C@H]21,1.45,–
CC1(C)Oc2cc(C3(CCCCN4CCOCC4)CCC3)cc(O)c2[C@@H]2C[C@H](O)CC[C@H]21,1.1,–
